In this test the test system is hypoxia-induced VEGF production in HeLa cells. As to the kind of experiment: cells. The test is classed as cell-based, human. The note with it: Homo sapiens, HeLa.
One may read the EC50 as the midpoint of the concentration-response curve. Higher therefore signals a need for much substance. `CC(C)(C)OC(=O)N1CCc2c([nH]c3ccc(Cl)cc23)C1c1ccc(OCCCCl)cc1` (centres unmarked) [Compound 1189] displayed a half-maximal effective concentration (EC50) below 8 nM.
`Cc1ccc(C(=O)N2CCc3c([nH]c4ccc(Cl)cc34)C2c2ccc(OCCCN3CCOCC3)cc2)cc1` (centres unmarked) [Compound 1190] came in with an EC50 of 40 to 200 nM.
In the case of `COc1ccc(C(=O)N2CCc3c([nH]c4ccc(Cl)cc34)C2c2ccc(OCCCn3cncn3)cc2)cc1` (centres unmarked) [Compound 1191] it was 40 to 200 nM; in that of `CC(C)C(=O)N1CCc2c([nH]c3ccc(Cl)cc23)C1c1ccc(OCCCN2CCOCC2)cc1` (centres unmarked) [Compound 1193], 40 to 200 nM; in that of `CCOC(=O)N1CCc2c([nH]c3ccc(Cl)cc23)C1c1ccc(OC)c(F)c1` (centres unmarked) [Compound 1198], 8 to 40 nM.
The molecule `Clc1ccc2[nH]c3c(c2c1)CCN(c1ncccn1)C3c1ccc(OCCCn2ccnn2)cc1` (centres unmarked) [Compound 1200] gave an EC50 below 8 nM.
Under `Clc1ccc2[nH]c3c(c2c1)CCN(c1ncccn1)C3c1ccc(OCCCn2cncn2)cc1` (centres unmarked) [Compound 1201] stands below 8 nM; under `CCOC(=O)N1CCc2c([nH]c3ccc(Cl)cc23)[C@@H]1c1ccc(OCC[C@H]2COC(C)(C)O2)cc1` [Compound 1202], below 8 nM; under `CC1(C)OC[C@H](CCOc2ccc([C@H]3c4[nH]c5ccc(Cl)cc5c4CCN3C(=O)Oc3ccc(Cl)cc3)cc2)O1` [Compound 1203], below 8 nM.
In the case of `CCOC(=O)N1CCc2c([nH]c3ccc(Cl)cc23)[C@@H]1c1ccc(OCC2COC(C)(C)OC2)cc1` [Compound 1206] it was below 8 nM; in that of `CCOC(=O)N1CCc2c([nH]c3ccc(Cl)cc23)C1c1ccc(OCC(CO)CO)cc1` (centres unmarked) [Compound 1208], 8 to 40 nM; in that of `O=C(Oc1ccc(Cl)cc1)N1CCc2c([nH]c3ccc(Cl)cc23)[C@@H]1c1ccc(OCC(CO)CO)cc1` [Compound 1209], below 8 nM.
The molecule `CCOC(=O)N1CCc2c([nH]c3ccc(Cl)cc23)C1c1ccc(OCC(N)=O)cc1` (centres unmarked) [Compound 1210] displayed an EC50 of 8 to 40 nM.
Under `NC(=O)COc1ccc(C2c3[nH]c4ccc(Cl)cc4c3CCN2C(=O)OCCF)cc1` (centres unmarked) [Compound 1211] stands 8 to 40 nM; under `CC#CCOC(=O)N1CCc2c([nH]c3ccc(Cl)cc23)C1c1ccc(OCC(N)=O)cc1` (centres unmarked) [Compound 1212], 8 to 40 nM.
In the case of `NC(=O)COc1ccc(C2c3[nH]c4ccc(Cl)cc4c3CCN2C(=O)Oc2ccc(Br)cc2)cc1` (centres unmarked) [Compound 1214] it was 8 to 40 nM; in that of `NC(=O)COc1ccc(C2c3[nH]c4ccc(Cl)cc4c3CCN2C(=O)Oc2ccc(F)cc2)cc1` (centres unmarked) [Compound 1215], 8 to 40 nM; in that of `C=CCOc1ccc([C@H]2c3[nH]c4ccc(Cl)cc4c3CCN2C(=O)OCC)cc1` [Compound 1217], below 8 nM.
In the case of `CCOC(=O)N1CCc2c([nH]c3ccc(Cl)cc23)[C@@H]1c1ccc(O)cc1` [Compound 1218] it was 8 to 40 nM; in that of `Clc1ccc2[nH]c3c(c2c1)CCNC3c1ccc(OC2CCOCC2)cc1` (centres unmarked) [Compound 1220], 40 to 200 nM.
Molecule `CCOC(=O)N1CCc2c([nH]c3ccc(Cl)cc23)[C@@H]1c1ccc(OC[C@H](O)CO)cc1` [Compound 1221] came in with an EC50 below 8 nM.
Under `CCOC(=O)N1CCc2c([nH]c3ccc(Cl)cc23)[C@@H]1c1ccc(OC[C@@H](O)CO)cc1` [Compound 1222] stands below 8 nM; under `CCOC(=O)N1CCc2c([nH]c3ccc(Cl)cc23)[C@@H]1c1ccc(OC[C@H]2COC(C)(C)O2)cc1` [Compound 1226], below 8 nM.
As for `CC1(C)OC[C@H](COc2ccc([C@H]3c4[nH]c5ccc(Cl)cc5c4CCN3C(=O)Oc3ccc(Cl)cc3)cc2)O1` [Compound 1227], the half-maximal effective concentration (EC50) was below 8 nM.
Under `CCOC(COc1ccc(C2c3[nH]c4ccc(Cl)cc4c3CCN2C(=O)Oc2ccc(Cl)cc2)cc1)OCC` (centres unmarked) [Compound 1228] stands below 8 nM; under `O=C(Oc1ccc(Cl)cc1)N1CCc2c([nH]c3ccc(Cl)cc23)C1c1ccc(OC(CO)CO)cc1` (centres unmarked) [Compound 1231], 8 to 40 nM; under `CC#CCOC(=O)N1CCc2c([nH]c3ccc(Cl)cc23)C1c1ccc(OC)c(F)c1` (centres unmarked) [Compound 1232], 40 to 200 nM.
Under `CCCN(CCC)CCCOc1ccc([C@H]2c3[nH]c4ccc(Cl)cc4c3CCN2C(=O)OCC)cc1` [Compound 1233] stands 8 to 40 nM.
In the case of `CCCN(CCC)CCCOc1ccc([C@H]2c3[nH]c4ccc(Cl)cc4c3CCN2C(=O)Oc2ccc(Cl)cc2)cc1` [Compound 1234] it was below 8 nM; in that of `O=C(Oc1ccc(Cl)cc1)N1CCc2c([nH]c3ccc(Cl)cc23)[C@@H]1c1ccc(OCCCNC2CCCC2)cc1` [Compound 1235], 8 to 40 nM; in that of `CCOC(=O)N1CCc2c([nH]c3ccc(Cl)cc23)[C@@H]1c1ccc(OCCCNC2CCCC2)cc1` [Compound 1236], 8 to 40 nM.
For `C=CCOc1ccc([C@H]2c3[nH]c4ccc(Cl)cc4c3CCN2c2ncccn2)cc1` [Compound 1237], the half-maximal effective concentration (EC50) was below 8 nM.
Take `CC(C)(C)OC(=O)N1CCc2c([nH]c3ccc(Cl)cc23)[C@@H]1c1ccc(OCCCn2ccnn2)cc1` [Compound 1239]: the EC50 was below 8 nM.
In the case of `CC(C)(C)OC(=O)N1CCc2c([nH]c3ccc(Cl)cc23)[C@@H]1c1ccc(OCCCn2nccn2)cc1` [Compound 1240] it was below 8 nM; in that of `Oc1ccc([C@H]2c3[nH]c4ccc(Cl)cc4c3CCN2c2ncccn2)cc1` [Compound 1241], 8 to 40 nM.
`CC1(C)OCC(COc2ccc([C@H]3c4[nH]c5ccc(Cl)cc5c4CCN3c3ncccn3)cc2)CO1` [Compound 1242] displayed an EC50 below 8 nM.
In the case of `OCC(CO)COc1ccc(C2c3[nH]c4ccc(Cl)cc4c3CCN2c2ncccn2)cc1` (centres unmarked) [Compound 1243] it was 8 to 40 nM; in that of `CC1(C)OC[C@H](CCOc2ccc([C@H]3c4[nH]c5ccc(Cl)cc5c4CCN3c3ncccn3)cc2)O1` [Compound 1244], below 8 nM; in that of `Clc1ccc2[nH]c3c(c2c1)CCN(c1ncccn1)[C@H]3c1ccc(OC[C@@H]2CO2)cc1` [Compound 1245], 8 to 40 nM.
As for `Clc1ccc2[nH]c3c(c2c1)CCN(c1ncccn1)[C@H]3c1ccc(OC[C@H]2CO2)cc1` [Compound 1246], the EC50 lay in the range of 8 to 40 nM.
`COc1ccc(C2c3[nH]c4ccc(Cl)cc4c3CCN2C(N)=S)cc1` (centres unmarked) [Compound 1247] registered an EC50 of 200 to 1000 nM.
On to `O[C@H](COc1ccc([C@H]2c3[nH]c4ccc(Cl)cc4c3CCN2c2ncccn2)cc1)CN1CCOCC1` [Compound 1249], for which the EC50 was below 8 nM.
The molecule `CCOC(=O)N1CCc2c([nH]c3ccc(Cl)cc23)[C@@H]1c1ccc(OCCCO)cc1` [Compound 1251] gave an EC50 below 8 nM.
Under `CC(C)OC(=O)N1CCc2c([nH]c3ccc(Cl)cc23)[C@@H]1c1ccc(OCCCO)cc1` [Compound 1252] stands below 8 nM.
Under `O=C(OC1CCCC1)N1CCc2c([nH]c3ccc(Cl)cc23)[C@@H]1c1ccc(OC2CCOCC2)cc1` [Compound 1253] stands below 8 nM.
In the case of `O[C@@H](COc1ccc([C@H]2c3[nH]c4ccc(Cl)cc4c3CCN2c2ncccn2)cc1)CN1CCOCC1` [Compound 1254] it was below 8 nM; in that of `O=C(Oc1ccc(Cl)cc1)N1CCc2c([nH]c3ccc(Cl)cc23)[C@@H]1c1ccc(OCCCNC(CO)(CO)CO)cc1` [Compound 1255], 40 to 200 nM; in that of `OCCCOc1ccc([C@H]2c3[nH]c4ccc(Cl)cc4c3CCN2c2ncccn2)cc1` [Compound 1256], below 8 nM.
In the case of `O=C(Oc1ccc(Cl)cc1)N1CCc2c([nH]c3ccc(Cl)cc23)[C@@H]1c1ccc(OCCCNCCO)cc1` [Compound 1257], the EC50 was in the range of 8 to 40 nM.
Molecule `O=C(Oc1ccc(Cl)cc1)N1CCc2c([nH]c3ccc(Cl)cc23)[C@@H]1c1ccc(OCCCN(CCO)CCO)cc1` [Compound 1258] gave an EC50 below 8 nM.
In the case of `CC1(C)OC[C@@H](COc2ccc([C@H]3c4[nH]c5ccc(Cl)cc5c4CCN3C(=O)Oc3ccc(Cl)cc3)cc2)O1` [Compound 1260] it was below 8 nM; in that of `CCOC(=O)N1CCc2c([nH]c3ccc(Cl)cc23)[C@@H]1c1ccc(OC[C@@H]2COC(C)(C)O2)cc1` [Compound 1261], below 8 nM; in that of `C=CCOc1ccc([C@H]2c3[nH]c4ccc(Cl)cc4c3CCN2C(=O)OC2CCCC2)cc1` [Compound 1262], below 8 nM.
In turn, `CCOC(=O)N1CCc2c([nH]c3ccc(Cl)cc23)[C@@H]1c1ccc(OCCCNC2CC2)cc1` [Compound 1264] registered a concentration for a half-maximal effect (EC50) of 8 to 40 nM.
Under `CCOC(=O)N1CCc2c([nH]c3ccc(Cl)cc23)C1c1ccc(OC)cc1F` (centres unmarked) [Compound 1268] stands below 8 nM; under `CCOC(=O)N1CCc2c([nH]c3ccc(Cl)cc23)[C@@H]1c1ccc(OCCC(O)CNC(C)=O)cc1` (some centres unmarked) [Compound 1270], 8 to 40 nM; under `CCOC(=O)N1CCc2c([nH]c3ccc(Cl)cc23)[C@@H]1c1ccc(OCCC(O)CNC(=O)COC)cc1` (some centres unmarked) [Compound 1271], 8 to 40 nM.
The molecule `CCOC(=O)N1CCc2c([nH]c3ccc(Cl)cc23)[C@@H]1c1ccc(OCCC(O)CN2CCOCC2)cc1` (some centres unmarked) [Compound 1272] showed a concentration giving a half-maximal response (EC50) below 8 nM.
In the case of `CCOC(=O)N1CCc2c([nH]c3ccc(Cl)cc23)[C@@H]1c1ccc(OCCC(O)CN(CCO)CCO)cc1` (some centres unmarked) [Compound 1273] it was 8 to 40 nM; in that of `CCOC(=O)N1CCc2c([nH]c3ccc(Cl)cc23)[C@@H]1c1ccc(OCCC(O)Cn2ccnn2)cc1` (some centres unmarked) [Compound 1274], below 8 nM.
Under `CCOC(=O)N1CCc2c([nH]c3ccc(Cl)cc23)[C@@H]1c1ccc(OCCC(O)Cn2nccn2)cc1` (some centres unmarked) [Compound 1275] stands below 8 nM.
In the case of `O=C(Oc1ccc(Cl)cc1)N1CCc2c([nH]c3ccc(Cl)cc23)[C@@H]1c1ccc(OCCC(O)CN2CCOCC2)cc1` (some centres unmarked) [Compound 1279] it was below 8 nM; in that of `O=C(Oc1ccc(Cl)cc1)N1CCc2c([nH]c3ccc(Cl)cc23)[C@@H]1c1ccc(OCCC(O)CN(CCO)CCO)cc1` (some centres unmarked) [Compound 1280], 8 to 40 nM.
Consider `CCOC(=O)N1CCc2c([nH]c3ccc(Cl)cc23)[C@@H]1c1ccc(OCC(C)(CO)CO)cc1` [Compound 1283], for which the EC50 is below 8 nM.
For `CCOC(=O)N1CCc2c([nH]c3ccc(Cl)cc23)[C@@H]1c1ccc(OCC2(C)COC(C)(C)OC2)cc1` [Compound 1284], the EC50 was below 8 nM.

Source of the values: patent publication US11613538B2, “Method of inhibiting or reducing a viral infection” (PTC Therapeutics, Inc., priority 2009, dated 2023).
